# Reference: patent US8044052B2, “Biaryl ether urea compounds” (Pfizer Inc., priority 2006, dated 2011)
# Target: T1, Human FAAH (Homo sapiens, UniProt O00519)
# T1 construct: made in house
# T1 sequence (O00519 1-579): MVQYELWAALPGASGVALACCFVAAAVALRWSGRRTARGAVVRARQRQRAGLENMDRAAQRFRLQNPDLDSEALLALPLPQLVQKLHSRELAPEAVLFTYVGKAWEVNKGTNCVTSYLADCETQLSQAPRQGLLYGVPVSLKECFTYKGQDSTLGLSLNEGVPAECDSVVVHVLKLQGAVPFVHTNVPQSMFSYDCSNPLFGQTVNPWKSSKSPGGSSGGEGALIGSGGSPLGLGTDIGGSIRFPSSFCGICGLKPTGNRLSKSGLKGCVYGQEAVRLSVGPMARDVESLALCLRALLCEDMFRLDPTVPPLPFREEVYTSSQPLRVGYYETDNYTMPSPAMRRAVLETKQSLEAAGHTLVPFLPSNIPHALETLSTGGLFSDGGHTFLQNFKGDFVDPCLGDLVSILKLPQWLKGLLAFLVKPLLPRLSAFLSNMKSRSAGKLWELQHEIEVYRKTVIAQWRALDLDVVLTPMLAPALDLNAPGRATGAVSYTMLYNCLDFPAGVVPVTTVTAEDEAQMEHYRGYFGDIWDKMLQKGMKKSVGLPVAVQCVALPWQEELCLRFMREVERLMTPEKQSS
# Assay: FAAH assay (glutamate dehydrogenase-coupled, oleamide substrate, absorbance at 340 nm)
# Format: biochemical
# Conditions: irreversible inhibition, 1-4 nM FAAH, pH 7.4, 30° C., 90 min
row,Compound,hFAAH kinact/Ki
1,N-(pyridazin-3-yl)-4-(3-{[phenyl-2-yl]oxy}benzylidene)piperidine-1-carboxamide [Example 32],973 M⁻¹ s⁻¹
2,N-(pyridin-3-yl)-4-(3-[{phenyl-2-yl]oxy}benzylidene)piperidine-1-carboxamide [Example 31],931 M⁻¹ s⁻¹
3,N-pyridin-4-yl-4-(3-{[5-(trifluoromethyl)pyridin-2-yl]oxy}benzylidene)piperidine-1-carboxamide trifluoroacetate [Example 76],2390 M⁻¹ s⁻¹

# Same assay, conditions: irreversible inhibition, 1-4 nM FAAH, pH 7.4, 30° C., 90 min, read-out: hFAAH kinact/Ki
row,Compound,kinact/KI
1,"O=C(Nc1cccnn1)N1CCC(=Cc2cccc(Oc3nccc(C(F)(F)F)n3)c2)CC1 [Example 113, N-pyridazin-3-yl-4-(3-{[4-(trifluoromethyl)pyrimidin-2-yl]oxy}benzylidene)piperidine-1-carboxamide]",584 M⁻¹ s⁻¹
2,"Cc1nc2c(c(Oc3cccc(C=C4CCN(C(=O)Nc5cccnn5)CC4)c3)n1)CCN(C)C2 [Example 114, 4-{3-[(2,7-dimethyl-5,6,7,8-tetrahydropyrido[3,4-d]pyrimidin-4-yl)oxy]benzylidene}-N-pyridazin-3-ylpiperidine-1-carboxamide]",< 10 M⁻¹ s⁻¹
3,"CCc1cc(Oc2cccc(C=C3CCN(C(=O)Nc4cccnn4)CC3)c2)nc(C(F)(F)F)n1 [Example 115, 4-(3-{[6-ethyl-2-(trifluoromethyl)pyrimidin-4-yl]oxy}benzylidene)-N-pyridazin-3-ylpiperidine-1-carboxamide]",< 11.2 M⁻¹ s⁻¹
4,"Cc1cc(C(F)(F)F)cc(Oc2cccc(C=C3CCN(C(=O)Nc4cccnn4)CC3)c2)n1 [Example 116, 4-(3-{[6-methyl-4-(trifluoromethyl)pyridin-2-yl]oxy}benzylidene)-N-pyridazin-3-ylpiperidine-1-carboxamide]",40.8 M⁻¹ s⁻¹
5,"O=C(Nc1cccnn1)N1CCC(=Cc2cccc(Oc3ccc(C(=O)N4CCOCC4)cn3)c2)CC1 [Example 117, 4-(3-{[5-(morpholin-4-ylcarbonyl)pyridin-2-yl]oxy}benzylidene)-N-pyridazin-3-ylpiperidine-1-carboxamide]",< 12.4 M⁻¹ s⁻¹
6,"Cc1nccnc1Oc1cccc(C=C2CCN(C(=O)Nc3cccnn3)CC2)c1 [Example 118, 4-{3-[(3-methylpyrazin-2-yl)oxy]benzylidene}-N-pyridazin-3-ylpiperidine-1-carboxamide]",191 M⁻¹ s⁻¹
7,"Cc1nnc(Oc2cccc(C=C3CCN(C(=O)Nc4cccnn4)CC3)c2)c2ccccc12 [Example 119, 4-{3-[(4-methylphthalazin-1-yl)oxy]benzylidene}-N-pyridazin-3-ylpiperidine-1-carboxamide]",77.7 M⁻¹ s⁻¹
8,"Cc1cc(C)nc(Oc2cccc(C=C3CCN(C(=O)Nc4cccnn4)CC3)c2)n1 [Example 120, 4-{3-[(4,6-dimethylpyrimidin-2-yl)oxy]benzylidene}-N-pyridazin-3-ylpiperidine-1-carboxamide]",< 14.5 M⁻¹ s⁻¹
9,"COc1cc(Oc2cccc(C=C3CCN(C(=O)Nc4cccnn4)CC3)c2)ncn1 [Example 121, 4-{3-[(6-methoxypyrimidin-4-yl)oxy]benzylidene}-N-pyridazin-3-ylpiperidine-1-carboxamide]",896 M⁻¹ s⁻¹
10,"O=C(Nc1cccnn1)N1CCC(=Cc2cccc(Oc3cnc4ccccc4n3)c2)CC1 [Example 122, N-pyridazin-3-yl-4-[3-(quinoxalin-2-yloxy)benzylidene]piperidine-1-carboxamide]",909 M⁻¹ s⁻¹
11,"O=C(Nc1cccnn1)N1CCC(=Cc2cccc(Oc3cnccn3)c2)CC1 [Example 123, 4-[3-(pyrazin-2-yloxy)benzylidene]-N-pyridazin-3-ylpiperidine-1-carboxamide]",203 M⁻¹ s⁻¹
12,"O=C(Nc1cccnn1)N1CCC(=Cc2cccc(Oc3nc4ccccc4s3)c2)CC1 [Example 124, 4-[3-(1,3-benzothiazol-2-yloxy)benzylidene]-N-pyridazin-3-ylpiperidine-1-carboxamide]",7400 M⁻¹ s⁻¹
13,"O=C(Nc1cccnn1)N1CCC(=Cc2cccc(Oc3nc(-c4ccccc4)ns3)c2)CC1 [Example 125, 4-{3-[(3-phenyl-1,2,4-thiadiazol-5-yl)oxy]benzylidene}-N-pyridazin-3-ylpiperidine-1-carboxamide]",140 M⁻¹ s⁻¹
14,"O=C(Nc1ccc(C(F)(F)F)nc1)N1CCC(=Cc2cccc(Oc3ccc(C(F)(F)F)cn3)c2)CC1 [Example 126, N-[6-(trifluoromethyl)pyridin-3-yl]-4-(3-{[5-(trifluoromethyl)pyridin-2-yl]oxy}benzylidene)piperidine-1-carboxamide]",405 M⁻¹ s⁻¹
15,"COc1ccc(NC(=O)N2CCC(=Cc3cccc(Oc4ccc(C(F)(F)F)cn4)c3)CC2)c(OC)n1 [Example 127, N-(2,6-dimethoxypyridin-3-yl)-4-(3-{[5-(trifluoromethyl)pyridin-2-yl]oxy}benzylidene)piperidine-1-carboxamide]",675 M⁻¹ s⁻¹
16,"O=C(Nc1ccc(Oc2cccnc2)nc1)N1CCC(=Cc2cccc(Oc3ccc(C(F)(F)F)cn3)c2)CC1 [Example 128, N-[6-(pyridin-3-yloxy)pyridin-3-yl]-4-(3-{[5-(trifluoromethyl)pyridin-2-yl]oxy}benzylidene)piperidine-1-carboxamide]",1300 M⁻¹ s⁻¹
17,"COc1ncccc1NC(=O)N1CCC(=Cc2cccc(Oc3ccc(C(F)(F)F)cn3)c2)CC1 [Example 129, N-(2-methoxypyridin-3-yl)-4-(3-{[5-(trifluoromethyl)pyridin-2-yl]oxy}benzylidene)piperidine-1-carboxamide]",1730 M⁻¹ s⁻¹
18,"COc1cncc(NC(=O)N2CCC(=Cc3cccc(Oc4ccc(C(F)(F)F)cn4)c3)CC2)c1 [Example 130, N-(5-methoxypyridin-3-yl)-4-(3-{[5-(trifluoromethyl)pyridin-2-yl]oxy}benzylidene)piperidine-1-carboxamide]",944 M⁻¹ s⁻¹
19,"Cc1cc(NC(=O)N2CCC(=Cc3cccc(Oc4ccc(C(F)(F)F)cn4)c3)CC2)cnc1C [Example 131, N-(5,6-dimethylpyridin-3-yl)-4-(3-{[5-(trifluoromethyl)pyridin-2-yl]oxy}benzylidene)piperidine-1-carboxamide]",1110 M⁻¹ s⁻¹
20,"O=C(Nc1ncc(Br)cc1CO)N1CCC(=Cc2cccc(Oc3ccc(C(F)(F)F)cn3)c2)CC1 [Example 132, N-[5-bromo-3-(hydroxymethyl)pyridin-2-yl]-4-(3-{[5-(trifluoromethyl)pyridin-2-yl]oxy}benzylidene)piperidine-1-carboxamide]",105 M⁻¹ s⁻¹
21,"Cc1noc(C)c1NC(=O)N1CCC(=Cc2cccc(Oc3ccc(C(F)(F)F)cn3)c2)CC1 [Example 133, N-(3,5-dimethylisoxazol-4-yl)-4-(3-{[5-(trifluoromethyl)pyridin-2-yl]oxy}benzylidene)piperidine-1-carboxamide]",36.8 M⁻¹ s⁻¹
22,"Cc1nn(C)c(C)c1NC(=O)N1CCC(=Cc2cccc(Oc3ccc(C(F)(F)F)cn3)c2)CC1 [Example 134, 4-(3-{[5-(trifluoromethyl)pyridin-2-yl]oxy}benzylidene)-N-(1,3,5-trimethyl-1H-pyrazol-4-yl)piperidine-1-carboxamide]",< 10 M⁻¹ s⁻¹
23,"Cc1ccnc(NC(=O)N2CCC(=Cc3cccc(Oc4ccc(C(F)(F)F)cn4)c3)CC2)c1 [Example 135, N-(4-methylpyridin-2-yl)-4-(3-{[5-(trifluoromethyl)pyridin-2-yl]oxy}benzylidene)piperidine-1-carboxamide]",173 M⁻¹ s⁻¹
24,"Cn1cc(NC(=O)N2CCC(=Cc3cccc(Oc4ccc(C(F)(F)F)cn4)c3)CC2)cn1 [Example 137, N-(1-methyl-1H-pyrazol-4-yl)-4-(3-{[5-(trifluoromethyl)pyridin-2-yl]oxy}benzylidene)piperidine-1-carboxamide]",1070 M⁻¹ s⁻¹
25,"O=C(Nc1cn[nH]c1)N1CCC(=Cc2cccc(Oc3ccc(C(F)(F)F)cn3)c2)CC1 [Example 138, N-1H-pyrazol-4-yl-4-(3-{[5-(trifluoromethyl)pyridin-2-yl]oxy}benzylidene)piperidine-1-carboxamide]",4300 M⁻¹ s⁻¹
26,"Cc1cc(NC(=O)N2CCC(=Cc3cccc(Oc4ccc(C(F)(F)F)cn4)c3)CC2)n[nH]1 [Example 139, N-(5-methyl-1H-pyrazol-3-yl)-4-(3-{[5-(trifluoromethyl)pyridin-2-yl]oxy}benzylidene)piperidine-1-carboxamide]",306 M⁻¹ s⁻¹
27,"COc1ccc(NC(=O)N2CCC(=Cc3cccc(Oc4ccc(C(F)(F)F)cn4)c3)CC2)c(C)n1 [Example 140, N-(6-methoxy-2-methylpyridin-3-yl)-4-(3-{[5-(trifluoromethyl)pyridin-2-yl]oxy}benzylidene)piperidine-1-carboxamide]",837 M⁻¹ s⁻¹
28,"CCc1ccnc(NC(=O)N2CCC(=Cc3cccc(Oc4ccc(C(F)(F)F)cn4)c3)CC2)c1 [Example 141, N-(4-ethylpyridin-2-yl)-4-(3-{[5-(trifluoromethyl)pyridin-2-yl]oxy}benzylidene)piperidine-1-carboxamide]",117 M⁻¹ s⁻¹
29,"O=C(Nc1ccc(O)nc1)N1CCC(=Cc2cccc(Oc3ccc(C(F)(F)F)cn3)c2)CC1 [Example 142, N-(6-hydroxypyridin-3-yl)-4-(3-{[5-(trifluoromethyl)pyridin-2-yl]oxy}benzylidene)piperidine-1-carboxamide]",246 M⁻¹ s⁻¹
30,"O=C(Nc1cc(O)[nH]n1)N1CCC(=Cc2cccc(Oc3ccc(C(F)(F)F)cn3)c2)CC1 [Example 143, N-(5-hydroxy-1H-pyrazol-3-yl)-4-(3-{[5-(trifluoromethyl)pyridin-2-yl]oxy}benzylidene)piperidine-1-carboxamide]",412 M⁻¹ s⁻¹
